# Assays:
# Format in all cases: in vivo, Balb/c mice
# LPS-induced ALI mice [1] = assay: LPS-induced ALI model: pro-inflammatory cytokines and chemokines in BALF by ELISA; conditions: CT-NA 10 or 30 mg/kg, Dex 1 mg/kg, dose-dependent, P<0.05 or P<0.01
# Description: (§1) Specific pathogen-free (SPF) Balb/c mice (♂/♀; 20-26 g; 8 weeks old) were purchased from Shanghai SIPPR-BK Experimental Animal Co., Ltd. Mice were kept in an isolated ventilated cage in an environment of 40-60% humidity, 24±2° C., and 12 hrs/12 hrs dark-light cycle, and had free access to food and water. The method for preparing the LPS-induced ALI model was simply described as follows. The mice were randomly divided into a control group (12 mice) and an LPS group (48 mice). The LPS group (48 mice) was further divided into four subgroups (12 mice in each subgroup). The unanaesthetized mice in the four subgroups of LPS were intragastrically administered with normal saline (NS), CT-NA at 10 mg/kg or 30 mg/kg, and Dex at 1 mg/kg, respectively. […] 24 hrs after LPS challenge, the oxygen saturation (SO2) of all mice was measured by a Moor VMS-OXY™ instrument which measured SO2 (%) in the microcirculation at the wavelength range of 500 to 650 nm. […]
# The expression levels of pro-inflammatory cytokines (TNF-α, IL-1β, IL-6), and chemokines (KC, mouse IL-8 homolog) in the BALF supernatant were determined by using respective ELISA determination kits according to the instruction manual. After measurements of the optical density at 450 nm, the expression level was calculated via the standard curves.
# [2] = tested on: NF-κB signalling pathway in the lung of LPS-induced ALI mice; assay: Western blotting of NF-κB signalling pathway, lung tissue of ALI mice; conditions: CT-NA 10 mg/kg or 30 mg/kg
# Description: as §1, with “respectively. One hour later, the mice were anesthetized with sodium pentobarbital (intraperitoneal injection at 40 mg/kg), and then subjected to intratracheal instillation of NS to control group and LPS (4 mg/kg) to all LPS subgroups. 12 hrs later, the unanaesthetized mice of the LPS group were intragastrically administered with NS, CT-NA at 10 mg/kg or 30 mg/kg, or Dex at 1 mg/kg, respectively (FIG. 16).” for “respectively.”
# LPS-induced ALI mice [3] = assay: LPS-induced ALI model: histological examination (H&E)
# Description: as §1
# The lower lobe of the left lung of each mouse was inflated with neutral buffered 10% formalin instilled at room temperature under constant pressure of 22 to 25 cm H2O for 48 hrs. […] Pulmonary edema, hemorrhage, alveolar wall thickening and infiltration of neutrophils and inflammatory cells were counted and scored to evaluate the severity of lung injury. […] The total lung injury score was expressed as the sum of the four criteria. […]
structure (smiles),measurement,setting,value
CN([C@@H]1CCc2c(CC(=O)[O-])c3cccnc3n2C1)S(=O)(=O)c1ccc(F)cc1.[Na+] [Sodium salt hydrate],"production of IL-1β, TNF-α, IL-6 and KC in BALF",LPS-induced ALI mice [1],effectively reduced
same,degradation of IκBα and P65 induced by LPS,[2],strongly reversed
same,LPS-induced IκBα and P65 activation,[2]; dose-dependent,reduced
same,pathological scores,"LPS-induced ALI mice [3]; CT-NA 10 mg/kg (P<0.05) and 30 mg/kg (P<0.01), Dex 1 mg/kg (P<0.01)",considerably reduced
same,LPS-induced pulmonary histopathological changes,"LPS-induced ALI mice [3]; CT-NA 10 or 30 mg/kg (dose dependence) or Dex 1 mg/kg, H&E",significant reduction

# Reference: patent US20220098197A1, “SALTS OF HETEROCYCLIC COMPOUND AND USE THEREOF” (priority 2019, published 2022)
